Key:
[1] = biological target: T1, SHP2 protein (Homo sapiens, UniProt Q06124); assay: Degradation activity on SHP2 protein in MV-411 cells (Western blot, DC50); format: cell-based; design: endogenous in cells; settings: MV411 cells, 24 hours, read-out: Degradation activity for differenct cell lines MV411 (DC50)
T1 sequence (Q06124 1-593): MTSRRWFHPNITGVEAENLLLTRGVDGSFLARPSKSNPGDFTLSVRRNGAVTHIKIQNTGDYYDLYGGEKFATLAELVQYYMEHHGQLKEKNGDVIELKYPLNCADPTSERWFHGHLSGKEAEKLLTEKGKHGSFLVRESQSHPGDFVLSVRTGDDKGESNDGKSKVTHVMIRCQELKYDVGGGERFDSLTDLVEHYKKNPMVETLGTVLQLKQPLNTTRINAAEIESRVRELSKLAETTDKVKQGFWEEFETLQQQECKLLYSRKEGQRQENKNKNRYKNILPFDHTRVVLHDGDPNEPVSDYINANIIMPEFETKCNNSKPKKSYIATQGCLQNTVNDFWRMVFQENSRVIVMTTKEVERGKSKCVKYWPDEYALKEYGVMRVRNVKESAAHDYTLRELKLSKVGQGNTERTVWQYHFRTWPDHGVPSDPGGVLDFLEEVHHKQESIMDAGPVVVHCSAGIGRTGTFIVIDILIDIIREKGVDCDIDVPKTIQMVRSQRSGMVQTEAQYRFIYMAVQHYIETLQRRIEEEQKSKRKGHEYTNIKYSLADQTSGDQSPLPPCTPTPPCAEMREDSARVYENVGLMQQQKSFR
Procedure, shortened: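 Western blot of SHP2 (GAPDH loading control, 30 μg protein/lane) in lysates of MV-411 cells exposed 24 h to final compound concentrations of 100, 10, 3, 1, 0.3 and 0.1 nM (0.1% DMSO). Degradation relative to DMSO set at 100%; DC50 derived by curve fitting.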

[2] = biological target: T1, SHP2 protein; assay: Degradation activity on SHP2 protein in MIA Paca-2 cells (Western blot, DC50); format: cell-based; design: endogenous in cells; host or cells: MIA Paca-2 cells; settings: read-out: Degradation activity for differenct cell lines MIA Paca-2 (DC50)
Procedure, shortened: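 DC50 is the concentration degrading 50% of SHP2 relative to DMSO control. It was derived by fitting Western blot band densitometry (anti-SHP2, GAPDH reference) from cells exposed 24 h to 0.1–100 nM compound in 0.1% DMSO.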

CC1(N)CCN(c2cnc(Sc3cccc(NC(=O)CCCCCCCO[C@@H]4CN(c5ccc(C(=O)NCc6ccc7c(c6)CN(C6CCC(=O)NC6=O)C7=O)nn5)CC4(F)F)c3)cn2)CC1 (stereo partly shown) [Compound 178]
DC50 [1]: < 100 nM | DC50 [2]: < 100 nM

CC1(N)CCN(c2cnc(Sc3cccc(NC(=O)CC(=O)Nc4cccc5c4CN(C4CCC(=O)NC4=O)C5=O)c3)cn2)CC1 (stereo not shown) [Compound 5]
DC50 [1]: > 1000 nM

CC1(N)CCN(c2cnc(Sc3cccc(NC(=O)C4CCN(CCCCCCCCCCC(=O)NCc5ccc6c(c5)CN(C5CCC(=O)NC5=O)C6=O)CC4)c3)cn2)CC1 (stereo not shown) [Compound 37]
DC50 [1]: > 1000 nM

CC1(N)CCN(c2cnc(Sc3cccc(NC(=O)CCC(=O)NCCOCCOCCOCC(=O)Nc4ccc5c(c4)C(=O)N(C4CCC(=O)NC4=O)C5)c3)cn2)CC1 (stereo not shown) [Compound 22]
DC50 [1]: > 1000 nM

CC1(N)CCN(c2cnc(Sc3cccc(NC(=O)CCCCCCC(=O)N4CC5(CCN(c6ccc(C(=O)NCc7ccc8c(c7)CN(C7CCC(=O)NC7=O)C8=O)nn6)C5)C4)c3)cn2)CC1 (stereo not shown) [Compound 134]
DC50 [1]: 100 to 1000 nM

CC1(N)CCN(c2cnc(Sc3cccc(NC(=O)CCCCCCN4CC5(CCN(C(=O)/C=C/C(=O)NCc6ccc7c(c6)CN(C6CCC(=O)NC6=O)C7=O)C5)C4)c3)cn2)CC1 (stereo not shown) [Compound 117]
DC50 [1]: > 1000 nM

CC1(N)CCN(c2cnc(Sc3cccc(NC(=O)CCC(=O)NCCOCCOCC(=O)NCc4ccc5c(c4)CN(C4CCC(=O)NC4=O)C5=O)c3)cn2)CC1 (stereo not shown) [Compound 19]
DC50 [1]: > 1000 nM

CN[C@H](C)C(=O)N[C@@H](C(=O)N1C[C@@H](NC(=O)c2cnc(N3CCC4(CN(CCCCC(=O)Nc5cccc(Sc6cnc(N7CCC(N)(CF)CC7)cn6)c5)C4)C3)nc2)C[C@@H]1C(=O)Nc1c(F)cccc1F)C(C)(C)C [Compound 136]
DC50 [1]: > 1000 nM

CC1(N)CCN(c2cnc(Sc3cccc(NC(=O)/C=C/C(=O)N4CCC5(CN(CCCCCCC(=O)NCc6ccc7c(c6)CN(C6CCC(=O)NC6=O)C7=O)C5)C4)c3)cn2)CC1 (stereo not shown) [Compound 151]
DC50 [1]: > 1000 nM

CC1(N)CCN(c2cnc(Sc3cccc(NC(=O)COCCOCCN4CCN(c5ncc(C(=O)NCc6ccc7c(c6)CN(C6CCC(=O)NC6=O)C7=O)cn5)CC4)c3)cn2)CC1 (stereo not shown) [Compound 67]
DC50 [1]: > 1000 nM

NC1(CF)CCN(c2cnc(Sc3cccc(NC(=O)CCCCCCCO[C@H]4CCN(c5ccc(C(=O)NCc6ccc7c(c6)CN(C6CCC(=O)NC6=O)C7=O)nn5)C4)c3)cn2)CC1 (stereo partly shown) [Compound 135]
DC50 [1]: < 100 nM

CC1(CN)CCN(c2cnc(Sc3cccc(NC(=O)CCC(=O)N4CCN(CCCCCCCCC(=O)Nc5ccc6c(c5)C(=O)N(C5CCC(=O)NC5=O)C6)CC4)c3Cl)cn2)CC1 (stereo not shown) [Compound 16]
DC50 [1]: < 100 nM

CC1(N)CCN(c2cnc(Sc3cccc(NC(=O)CCN4CC5(CCN(c6ccc(COc7cccc8c7CN(C7CCC(=O)NC7=O)C8=O)nn6)C5)C4)c3)cn2)CC1 (stereo not shown) [Compound 133]
DC50 [1]: > 1000 nM

Cc1ncsc1-c1ccc([C@H](C)NC(=O)[C@@H]2C[C@@H](O)CN2C(=O)[C@@H](NC(=O)CCCCCCCCCCN2CCC(C(=O)Nc3cccc(Sc4cnc(N5CCC(C)(N)CC5)cn4)c3)CC2)C(C)(C)C)cc1 [Compound 36]
DC50 [1]: > 1000 nM

CC1(N)CCN(c2cnc(Sc3cccc(NC(=O)CCC(=O)N4CC5(CN(CCCCCCCC(=O)Nc6ccc7c(c6)C(=O)N(C6CCC(=O)NC6=O)C7)C5)C4)c3)cn2)CC1 (stereo not shown) [Compound 26]
DC50 [1]: > 1000 nM

CN(Cc1ccc2c(c1)CN(C1CCC(=O)NC1=O)C2=O)C(=O)c1cnc(N2CCC3(CN(CCCCCCC(=O)Nc4cccc(Sc5cnc(N6CCC(C)(N)CC6)cn5)c4)C3)C2)cn1 (stereo not shown) [Compound 180]
DC50 [1]: < 100 nM

Cc1ncsc1-c1ccc([C@H](C)NC(=O)[C@@H]2C[C@@H](O)CN2C(=O)[C@@H](NC(=O)c2cnc(N3CCN(CCCCCCCCC(=O)Nc4cccc(Sc5cnc(N6CCC(C)(C(N)=O)CC6)cn5)c4)CC3)nc2)C(C)(C)C)cc1 [Compound 60]
DC50 [1]: > 1000 nM

CC1(N)CCN(c2cnc(Sc3cccc(NC(=O)/C=C/C(=O)N4CC5(CCN(CCCCCCC(=O)NCc6ccc7c(c6)CN(C6CCC(=O)NC6=O)C7=O)C5)C4)c3)cn2)CC1 (stereo not shown) [Compound 150]
DC50 [1]: > 1000 nM

Cc1ncsc1-c1ccc([C@H](C)NC(=O)[C@@H]2C[C@@H](O)CN2C(=O)[C@@H](NC(=O)c2ccc(N3CCC4(CN(CCCCC(=O)Nc5cccc(Sc6cnc(N7CCC(C)(N)CC7)cn6)c5)C4)C3)nn2)C(C)(C)C)cc1 [Compound 144]
DC50 [1]: 100 to 1000 nM

CCCCCOC(=O)NC1(C)CCN(c2cnc(Sc3cccc(NC(=O)CCCCCCN4CC5(CCN(c6ccc(C(=O)NCc7ccc8c(c7)CN(C7CCC(=O)NC7=O)C8=O)nn6)C5)C4)c3)cn2)CC1 (stereo not shown) [Compound 187]
DC50 [1]: > 1000 nM

Cc1ncsc1-c1ccc([C@H](C)NC(=O)[C@@H]2C[C@@H](O)CN2C(=O)[C@@H](NC(=O)COCCOCCOCCOCC(=O)Nc2ccc(Sc3cnc(N4CCC(C)(CN)CC4)cn3)c(Cl)c2)C(C)(C)C)cc1 [Compound 7]
DC50 [1]: 100 to 1000 nM

CC1(N)CCN(c2cnc(Sc3cccc(NC(=O)CCCCCCCN4CC5(C4)CN(c4ccc(C(=O)NCc6ccc7c(c6)CN(C6CCC(=O)NC6=O)C7=O)nn4)C5)c3)cn2)CC1 (stereo not shown) [Compound 81]
DC50 [1]: < 100 nM

CC1(N)CCN(c2cnc(Sc3cccc(NC(=O)CCC(=O)NCCOCCOCC(=O)Nc4cccc5c4CN(C4CCC(=O)NC4=O)C5=O)c3)cn2)CC1 (stereo not shown) [Compound 29]
DC50 [1]: > 1000 nM

Cc1ncsc1-c1ccc([C@H](C)NC(=O)[C@@H]2C[C@@H](O)CN2C(=O)[C@@H](NC(=O)[C@@H]2C[C@H]2C(=O)N2CCC3(CN(CCCCCCC(=O)Nc4cccc(Sc5cnc(N6CCC(C)(N)CC6)cn5)c4)C3)C2)C(C)(C)C)cc1 [Compound 126]
DC50 [1]: 100 to 1000 nM

NC1CCN(c2cnc(Sc3cccc(NC(=O)CCCCCCN4CC5(CCN(c6ccc(C(=O)NCc7ccc8c(c7)CN(C7CCC(=O)NC7=O)C8=O)nn6)C5)C4)c3)cn2)CC1CO (stereo not shown) [Compound 194]
DC50 [1]: < 100 nM

Cc1ncsc1-c1ccc([C@H](C)NC(=O)[C@@H]2C[C@@H](O)CN2C(=O)[C@@H](NC(=O)c2ccc(N3CC[C@H](OCCCCCCCC(=O)Nc4cccc(Sc5cnc(N6CCC(C)(N)CC6)cn5)c4)C3)nn2)C(C)(C)C)cc1 [Compound 101]
DC50 [1]: < 100 nM

CN(Cc1ccc2c(c1)CN(C1CCC(=O)NC1=O)C2=O)C(=O)c1ccc(N2CCC3(CN(CCCCCCC(=O)Nc4cccc(Sc5cnc(N6CCC(N)(CO)CC6)cn5)c4)C3)C2)nn1 (stereo not shown) [Compound 169]
DC50 [1]: < 100 nM

CN(Cc1ccc2c(c1)CN(C1CCC(=O)NC1=O)C2=O)C(=O)c1ccc(N2CC3CC(OCCCCCCC(=O)Nc4cccc(Sc5cnc(N6CCC(C)(N)CC6)cn5)c4)CC3C2)nn1 (stereo not shown) [Compound 184]
DC50 [1]: < 100 nM

CC1(N)CCN(c2cnc(Sc3cccc(NC(=O)CCN4CC5(CCN(c6ncc(C(=O)NCc7ccc8c(c7)CN(C7CCC(=O)NC7=O)C8=O)cn6)C5)C4)c3)cn2)CC1 (stereo not shown) [Compound 65]
DC50 [1]: < 100 nM

CN[C@H](C)C(=O)N[C@@H](C(=O)N1C[C@@H](NC(=O)c2ccc(N3CC4CCC(C3)N4CCCCCCCCC(=O)Nc3cccc(Sc4cnc(N5CCC(N)C(F)C5)cn4)c3)nn2)C[C@@H]1C(=O)Nc1c(F)cccc1F)C(C)(C)C (stereo partly shown) [Compound 142]
DC50 [1]: > 1000 nM

CN(Cc1ccc2c(c1)CN(C1CCC(=O)NC1=O)C2=O)C(=O)c1cnc(N2CCC3(CN(CCCCCCC(=O)Nc4cccc(Sc5cnc(N6CCC(C)(N)CC6)cn5)c4)C3)C2)c(Cl)c1 (stereo not shown) [Compound 182]
DC50 [1]: < 100 nM

CC1(N)CCN(c2cnc(Sc3cccc(NC(=O)CCCCN4CC5(CCN(c6ccc(C(=O)NCc7ccc8c(c7)CN(C7CCC(=O)NC7=O)C8=O)nn6)C5)C4)c3)cn2)CC1 (stereo not shown) [Compound 145]
DC50 [1]: < 100 nM

C[C@@H]1OCC2(CCN(c3cnc(Sc4cccc(NC(=O)CCCCN5CC6(CCN(c7ccc(C(=O)NCc8ccc9c(c8)CN(C8CCC(=O)NC8=O)C9=O)nn7)C6)C5)c4)cn3)CC2)[C@@H]1N (stereo partly shown) [Compound 109]
DC50 [1]: < 100 nM

CC1(N)CCN(c2cnc(Sc3cccc(NC(=O)CCCCCCOC4CN(c5ncc(C(=O)NCc6ccc7c(c6)CN(C6CCC(=O)NC6=O)C7=O)cn5)C4)c3)cn2)CC1 (stereo not shown) [Compound 87]
DC50 [1]: < 100 nM

CC1(N)CCN(c2cnc(Sc3cccc(NC(=O)CCCCCCCOC4CCN(c5ncc(C(=O)Nc6ccc7c(c6)CN(C6CCC(=O)NC6=O)C7=O)cn5)CC4)c3)cn2)CC1 (stereo not shown) [Compound 93]
DC50 [1]: < 100 nM

Cc1ncsc1-c1ccc([C@H](C)NC(=O)[C@@H]2C[C@@H](O)CN2C(=O)[C@@H](NC(=O)c2cnc(N3CC[C@@H](OCCCCCCCC(=O)Nc4cccc(Sc5cnc(N6CCC(C)(N)CC6)cn5)c4)C3)nc2)C(C)(C)C)cc1 [Compound 103]
DC50 [1]: < 100 nM

Source: patent publication US20240383908A1, “SYNTHESIS AND APPLICATION OF PHOSPHATASE DEGRADER” (HINOVA PHARMACEUTICALS INC., priority 2021, published 2024)
